Experimental data from patent publication US20120164731A1, “METHOD OF INDUCING DIFFERENTIATION FROM PLURIPOTENT STEM CELLS TO SKELETAL MUSCLE PROGENITOR CELLS” (KYOTO UNIVERSITY, priority 2009, published 2012).

Legend:
[1] = test system: iPS-DsRed; assay: Induction of differentiation from primitive streak mesodermal cells to skeletal muscle progenitor cells (SM/C-2.6 FACS, Myf5 RT-PCR); type: cell-based, mouse
Protocol: (§1) Undifferentiated cells were detached from the dish as in the passage subculture, and twice washed with the differentiation induction basal medium. 10 ml of the culture medium for the first 3 days was added to a 10 cm cell culture dish coated with collagen type IV (Nitta Gelatin), and 500,000 undifferentiated iPS cells were seeded thereinto. The cells were cultured in an incubator adjusted to 37° C., 5% CO2, and 100% humidity for 3 days, after which the medium was replaced with the culture medium for the last 3 days. The cells were thus differentiation-induced for a total of 6 days, from which skeletal muscle progenitor cells were separated by the method of cell separation described below, and these were used in the subsequent experiments.
(§2) The mouse iPS cells induced by the above-described differentiation induction method were divided into a population of skeletal muscle progenitor cells and a population of other cells using FACS Aria (Becton Dickinson). The cells were stained using antibodies as described previously [Sakurai, H. et al., Stem Cells 24, 575-586 (2006)]. Three different rat monoclonal antibodies were used: APA5 (anti-PDGFRα), ECCD2 (anti-ECD) and SM/C-2.6. The former two were supplied by Dr. Nishikawa [Sakurai, H. et al., Stem Cells 24, 575-586 (2006)], and the remaining one by Dr. Yamamoto [Fukada, S. et al., Exp Cell Res., 296, 245-255 (2004)]. The APA5 and SM/C-2.6 were conjugated with biotin (PIERCE) and fluorescently labeled using streptavidin-APC as a secondary antibody. The ECCD2 was directly conjugating with Alexa488 (Molecular Probes) by a conventional method and fluorescently labeled. The fluorescently labeled cells were suspended in Hanks' balanced salt solution (Invitrogen) supplemented with 1% bovine serum albumin to obtain a cell density of 5,000,000 cells per mL, fluorescence was examined and analyzed using FACS Aria, and the PDGFRα-positive fraction was separated and recovered.
RNA was extracted from the recovered cells using Sepasol Reagent (Nacalai Tesque). cDNA was synthesized from the RNA using the SuperScriptll reverse transcription kit (Invitrogen). DNA was amplified by 25-35 cycles of PCR reaction using the ExTaq PCR reagent kit (Takara Bio) and the PTC200 thermal cycler (DNA engine), and analyzed by electrophoresis. The PCR primers shown below were used.
To find a method for effectively inducing the differentiation, the present inventors investigated the potential of the Wnt signal inducer LiCl, used alone or in combination with other growth factors, for inducing the differentiation of iPS cells into skeletal muscle progenitor cells. Selected growth factor candidates, i.e., Sonic Hedgehog (Shh) and IGF-1, were added to the differentiation medium for the last 3 days, and their influences on differentiation into skeletal muscle progenitor cells were examined (FIG. 3A). The iPS cell used was iPS-DsRed. The degree of differentiation into skeletal muscle progenitor cells was analyzed with the expression of SM/C-2.6 as an index. Also analyzed was the expression of Myf5, which is a skeletal muscle-specific transcription factor in the RNA as a whole. SM/C-2.6 is a marker capable of specifically staining satellite cells, which are skeletal muscle stem cells [Fukada, S. et al., Exp Cell Res., 296, 245-255 (2004)], and has been reported to enable the separation of skeletal muscle progenitor cells from a mouse ES cell induction system [Chang, H. et al., Generation of transplantable, functional satellite-like cells from mouse embryonic stem cells. Faseb J., 23: 1907-1919 (2009)].
First, the influence of the addition of Shh was determined. iPS-DsRed was induced to differentiate as illustrated in FIG. 3A. During the last 3 days, the cells were cultured in the presence of LiCl, alone or with the addition of Shh 20 ng/ml; the cells were induced to differentiate for a total of 6 days, stained with SM/C-2.6, and evaluated.

[2] = test system: iPS cells; assay: Timing of LiCl addition, appearance efficiency of PDGFRα-positive fraction by FACS; type: cell-based, mouse; conditions: continuous addition of LiCl from day 1 or day 2 from start of differentiation induction
Protocol: A method of increasing the appearance efficiency of skeletal muscle progenitor cells derived from iPS cells was studied. Specifically, LiCl, which was added on day 3 from the start of the differentiation induction in the previous Examples, was added from a different day. Samples with addition of LiCl from day 0, 1, 2, 3 or 4 from the start of the differentiation induction were analyzed for the appearance efficiency of the PDGFRα-positive fraction by FACS analysis. As a result, not less than 60% of the induction efficiency could be reproduced by continuous addition of LiCl from day 1 or day 2 from the start of the differentiation induction (FIG. 8B). This method could also be reproduced with other iPS cell clone (iPS-Ng-20D-17).

[3] = test system: mouse iPS cells (iPS-Nanog-20D-17); assay: Induction of differentiation from iPS cells to primitive streak mesodermal cells (PDGFRα FACS, viable cell count); type: cell-based; conditions: for cell proliferation / survival: IGF-1 and/or HGF added or not
Protocol: Differentiation of iPS cells was induced using a serum-free basal medium for differentiation induction prepared by adding 0.2% bovine serum albumin (Sigma), 100 μM 2-mercaptoethanol (Invitrogen), 50 mU/L penicillin and 50 μg/L streptomycin to S-Clone SF-03 (Sanko Junyaku Co., Ltd.). Various growth factors were added to the medium, and their effects were examined. Eventually, the following growth factors were used at the concentrations indicated.
as §1, §2
With this in mind, a first experiment was performed to determine whether the addition of growth factors other than BMP4 supports the survival of iPS cells and promotes their differentiation into primitive streak mesodermal cells (hereinafter sometimes simply referred to as “mesoderm”). Activin A, IGF-1, and HGF were examined as growth factor candidates (FIG. 1A, italicized). With Activin A added to all culture conditions examined, 4 conditions were analyzed: “neither IGF-1 nor HGF was added”, “IGF-1 was added alone”, “HGF was added alone”, and “both were added”. The iPS cell used was iPS-Nanog-20D-17. […] However, the viable cell count was about 3 times higher in the IGF-1-alone addition group than in the IGF-1-HGF-concurrent addition group (FIG. 1B, right).
The influences of the concentrations of BMP4 and Activin A in the induction of differentiation from iPS cells to primitive streak mesodermal cells were examined. Specifically, of the addition conditions of Activin A 10 ng/ml, BMP4 10 ng/ml, and IGF-1 10 ng/ml determined in the previous section, the concentration of Activin A alone (FIG. 2A) or BMP4 alone (FIG. 2B) was changed, and the expression of PDGFRα was evaluated by FACS.

[4] = IGF-1 experiment, IGF-1-free or IGF-1 added, irrespective of concentration
[5] = Shh experiment, LiCl alone or with Shh during last 3 days
[6] = iPS-Nanog-20D-17, Activin A added to all conditions
[7] = induction of skeletal muscle progenitor cells, last 3 days

## [Cl-].[Li+] [LiCl, lithium chloride, reference compound]
[1]; IGF-1-free group, last 3 days
  percentage of SM/C-2.6-positive cells: 11.9%
[1]; [4]
  expression of Myf5 (RT-PCR): no expression of Myf5 was observed
[1]; [5]
  expression of Myf5 (RT-PCR): not observed at all
[1]; Shh-free group: LiCl alone during last 3 days, total 6 days
  percentage of SM/C-2.6-positive cells: 28.5%
[2]
  induction efficiency (PDGFRα-positive fraction): not less than 60%

## HGF: growth factor candidate examined with Activin A and IGF-1
[3]; [6]
  cell proliferation / survival: little cells surviving

## insulin-like growth factor-1 [IGF-1]
[3]; iPS-Nanog-20D-17, Activin A added to all conditions, with BMP4, starting 3 days
  differentiation rate (mesoderm differentiation, expression of PDGFRα as an index): 61.5%
[3]; [6]
  cell proliferation / survival: Cell proliferation was observed
[3]; iPS-Nanog-20D-17, with Activin A
  viable cell count, IGF-1-alone addition group versus IGF-1-HGF-concurrent addition group: about 3 times
[1]; IGF-1 5 ng/ml addition group, last 3 days
  percentage of SM/C-2.6-positive cells: 16.8%
[1]; [4]
  expression of Myf5 (RT-PCR): the expression of Myf5 was evident
[1]; [7]
  effective concentration: ≥ 5 ng/mL

## sonic hedgehog [Shh]
[1]; Shh 20 ng/ml addition group, with LiCl, last 3 days, total 6 days
  percentage of SM/C-2.6-positive cells: 38.8%
[1]; [5]
  expression of Myf5 (RT-PCR): Myf5 was expressed
[1]; [7]
  optimal concentration: about 20 ng/ml

B1: Activin A (protein, UniProt P08476 311-426, looked up)
Inhibin beta A chain: GLECDGKVNICCKKQFFVSFKDIGWNDWIIAPSGYHANYCEGECPSHIAGTSGSSLSFHSTVINHYRMRGHSPFANLKSCCVPTKLRPMSMLYYDDGQNIIKKDIQNMIVEECGCS
modifications: Inhibin beta A chain
notes: growth factor (Peprotech) added to the differentiation medium for the first 3 days
[3]; Activin A at 5 ng/ml or more, BMP4 10 ng/ml, IGF-1 10 ng/ml
  percentage of PDGFRα-positive cells induced: exceeded 40%
[3]; BMP4 10 ng/ml, IGF-1 10 ng/ml
  viable cell count for Activin A 0 ng/ml compared with 10 ng/ml: about one-sixth level
[3]; based on PDGFRα-positive percentage and viable cell count
  concentrations at which more effective: 5 to 10 ng/mL
[3]; [6]
  cell proliferation / survival: some cells survived

B2: bone morphogenetic protein 4 (protein, UniProt P12644 293-408, looked up)
Bone morphogenetic protein 4: SPKHHSQRARKKNKNCRRHSLYVDFSDVGWNDWIVAPPGYQAFYCHGDCPFPLADHLNSTNHAIVQTLVNSVNSSIPKACCVPTELSAISMLYLDEYDKVVLKNYQEMVVEGCGCR
notes: as for B1
[3]; Activin A 10 ng/ml, IGF-1 10 ng/ml
  viable cell count when BMP4 concentration decreased: remained nearly constant
[3]; BMP4 10 ng/ml, Activin A 10 ng/ml, IGF-1 10 ng/ml
  percentage of PDGFRα-positive cells: 44.7%
[3]; BMP4 at all concentrations of 5 ng/ml or less, Activin A 10 ng/ml, IGF-1 10 ng/ml
  percentage of PDGFRα-positive cells: 25-28%
